Measurements: patent publication US12016974B2, “Nitric oxide releasing surfaces for decreased fouling, thrombosis, and infection of medical devices” (priority 2016, dated 2024)
≈ marks a conversion by molar mass, not a printed value.

Assays:
[1] = Solubility of SNAP in silicone oil; type: physicochemical; conditions: oil or lipid, thermodynamic from solid
Description: Leaching of SNAP from the silicone tubing was repeated during the oil swelling process as well, to ensure large amounts of SNAP were not lost during the 3-day swelling period. Sections of SNAP impregnated tubing were massed and placed in 4 mL of silicone oil. The absorbance spectra of silicone oil were taken to ensure no interference would be seen between the SNAP maxima and the oil. […] Therefore, the same calibration curve of SNAP in PBS-EDTA was used for determining SNAP concentration in the silicone oil. Solubility of SNAP in silicone oil was determined by adding 10 mg/mL and put on a vortex mixer for 2 min. The suspension was then centrifuged (10 min, 3000 rpm), and a 1 mL sample of the silicone oil was taken for UV vis spectroscopy.

[2] = after 6 months at room temperature; cited from earlier work

## CC(=O)N[C@@H](C(=O)O)C(C)(C)SN=O (racemic) [SNAP, S-nitroso-N-acetylpenicillamine]
[1]
  solubility at 2 min: 0.4 µg/mL (≈ 1.82 µM)
[2]
  SNAP activity retained within a polymer matrix: 87%
